Data: paper PMC7679387, “VZHE-039, a novel antisickling agent that prevents erythrocyte sickling under both hypoxic and anoxic conditions” (Scientific Reports, 2020)

How the values were obtained:
Format in all cases: in vitro ADME
[1] = Partitioning into RBCs in whole blood; settings: 100–300 µM; normal whole human blood, 37 °C
Description: Toxicity concerns remain an important issue in the use of aromatic aldehydes in treating a chronic disease, such as SCD, especially as it involves modification of a large amount of in vivo present Hb. […] We evaluated key metrics such as in vitro RBC partitioning and ADME/safety profiles, in order to glean important safety insights. […] We also assessed VZHE-039 at 10 μM for its bi-directional cell permeability using Caco-2 cell monolayers[53],[54].
We incubated test compounds at expected blood concentrations (100–300 uM) with whole blood (mouse or human), after which we analyzed compound concentrations separately in plasma, whole blood and RBCs. Previously, we have established and validated reversed-phase HPLC and LC/MS methods for accurately measuring the compounds in blood. Validated reversed-phase HPLC was conducted on a Hitachi system, using a Waters C18 column, and a gradient of 0.1% Formic Acid in water (mobile phase A), and 0.1% Formic Acid in Acetonitrile (mobile phase B) at a flow rate of 1 mL/min in 12 min. UHPLC and LC/MS analyses were conducted at the Bioanalytical Core Facility at The Children’s Hospital of Philadelphia. […] 5 uL of each sample was injected at analyzed using a gradient of: (A) 5 mM ammonium acetate in deionized water (pH adjusted to 4.8 by formic acid); and (B) 5 mM ammonium acetate in (90:10) acetonitrile: water, at a flow rate of 0.5 mL/minute. […]

[2] = biological target: T1, CYP2B6 (Homo sapiens, UniProt P20813); test: In vitro CYP inhibition, pooled human liver microsomes; settings: substrate Bupropion
T1 construct: 0.2–0.5 mg/mL pooled human liver microsomes; from tissue; host or cells: pooled human liver microsomes
T1 sequence (P20813 1-491): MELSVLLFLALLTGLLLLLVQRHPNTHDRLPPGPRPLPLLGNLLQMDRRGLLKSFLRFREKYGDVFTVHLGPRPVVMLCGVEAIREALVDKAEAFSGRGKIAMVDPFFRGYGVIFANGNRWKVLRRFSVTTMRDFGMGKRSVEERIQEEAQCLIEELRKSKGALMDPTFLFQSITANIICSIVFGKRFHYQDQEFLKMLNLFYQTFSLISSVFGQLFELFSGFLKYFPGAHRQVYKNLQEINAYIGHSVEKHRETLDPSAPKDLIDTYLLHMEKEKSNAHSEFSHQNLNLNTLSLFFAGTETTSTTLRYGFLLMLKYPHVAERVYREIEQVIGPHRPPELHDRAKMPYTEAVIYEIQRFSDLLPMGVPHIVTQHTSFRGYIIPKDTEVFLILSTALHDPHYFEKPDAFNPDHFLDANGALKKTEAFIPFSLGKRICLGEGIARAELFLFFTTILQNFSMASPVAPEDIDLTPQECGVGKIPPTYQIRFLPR
Description: (§1) Next, we tested VZHE-039 at concentrations of 0.1 to 100 µM, considered to be biologically relevant unbound plasma concentrations, for possible CYP inhibition using pooled human liver microsomes and isozyme-specific probe substrates (CYP1A2, CYP2C8, CYP2C9, CYP2C19, CYP2D6, CYP3A4, CYP2B6)[55].
(§2) VZHE-039 was studied for its inhibitory potential of seven major drug metabolizing human cytochrome P450 (CYP) enzymes (CYP1A2, CYP2C8, CYP2C9, CYP2C19, CYP2D6, CYP3A4, CYP2B6) using pooled human liver microsomes as published previously[26],[55]. The probe substrates include tacrine (CYP1A2), amodiaquine (CYP2C8), tolbutamide (CYP2C9), mephenytoin (CYP2C19), dextromethorphan (CYP2D6), midazolam (CYP3A4), testosterone (CYP3A4), and bupropion (CYP2B6). […] Assay conditions were optimized for each human cytochrome P450 substrate. The optimized reaction mixtures (200 μL) contained a final concentration of 0.2–0.5 mg/mL pooled human liver microsomes, 2 mM NADPH in 100 mM potassium phosphate, pH 7.4 buffer with 5 mM MgCl2, and VZHE-039 concentration of 0.1 to 100 µM. The assays were performed in duplicate in 96-well plates at 37 °C for 10–60 min. The reaction was terminated with addition of methanol, followed by incubation at 4 °C for 10 min and centrifuged at 4 °C for 10 min. Effect of VZHE-039 on formation of the respective probe substrate metabolites (velnacrine, N‐desethylamodiaquine, 4-hydroxytolbutamide, 4′-hydroxymephenytoin, dextrophan, 1′-hydroxymidazolam, and 6β-hydroxtestosterone and hydroxybupropion) were determined using LC–MS/MS.

[3] = biological target: T2, CYP2C19 (Homo sapiens, UniProt P33261); test: as above; settings: substrate S-Mephentoin
T2 construct: 0.2–0.5 mg/mL pooled human liver microsomes; from tissue; host or cells: pooled human liver microsomes
T2 sequence (P33261 whole entry): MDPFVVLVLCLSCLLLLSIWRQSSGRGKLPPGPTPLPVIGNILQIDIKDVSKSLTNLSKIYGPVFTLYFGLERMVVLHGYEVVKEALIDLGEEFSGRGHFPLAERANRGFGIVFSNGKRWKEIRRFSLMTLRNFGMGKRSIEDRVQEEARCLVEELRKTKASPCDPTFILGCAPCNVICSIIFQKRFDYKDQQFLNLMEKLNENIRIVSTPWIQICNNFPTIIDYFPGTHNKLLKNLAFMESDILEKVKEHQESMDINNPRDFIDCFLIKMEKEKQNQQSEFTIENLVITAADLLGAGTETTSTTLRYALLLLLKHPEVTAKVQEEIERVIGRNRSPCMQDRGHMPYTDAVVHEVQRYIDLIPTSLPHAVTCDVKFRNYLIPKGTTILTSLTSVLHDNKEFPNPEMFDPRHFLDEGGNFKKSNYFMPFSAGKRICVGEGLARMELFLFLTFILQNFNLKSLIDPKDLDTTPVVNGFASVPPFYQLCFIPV
Description: as §1, §2

[4] = biological target: T3, CYP2C8 (Homo sapiens, UniProt P10632); test: as above; settings: substrate Amodiaquine
T3 construct: 0.2–0.5 mg/mL pooled human liver microsomes; from tissue; host or cells: pooled human liver microsomes
T3 sequence (P10632 1-490): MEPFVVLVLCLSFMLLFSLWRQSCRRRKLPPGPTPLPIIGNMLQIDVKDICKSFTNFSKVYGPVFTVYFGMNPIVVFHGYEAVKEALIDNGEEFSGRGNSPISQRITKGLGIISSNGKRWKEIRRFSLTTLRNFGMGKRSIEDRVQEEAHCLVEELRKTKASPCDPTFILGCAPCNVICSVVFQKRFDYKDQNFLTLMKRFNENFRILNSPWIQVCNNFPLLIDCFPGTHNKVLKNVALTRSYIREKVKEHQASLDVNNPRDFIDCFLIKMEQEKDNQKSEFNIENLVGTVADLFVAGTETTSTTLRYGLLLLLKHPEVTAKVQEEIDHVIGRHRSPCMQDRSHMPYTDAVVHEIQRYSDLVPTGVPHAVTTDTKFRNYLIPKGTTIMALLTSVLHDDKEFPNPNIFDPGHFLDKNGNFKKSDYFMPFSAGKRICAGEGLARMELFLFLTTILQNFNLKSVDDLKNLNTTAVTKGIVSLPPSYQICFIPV
Description: as §1, §2

[5] = biological target: T4, CYP2D6 (Homo sapiens, UniProt P10635); test: as above; settings: substrate Dextromethorphan
T4 construct: 0.2–0.5 mg/mL pooled human liver microsomes; from tissue; host or cells: pooled human liver microsomes
T4 sequence (P10635 whole entry): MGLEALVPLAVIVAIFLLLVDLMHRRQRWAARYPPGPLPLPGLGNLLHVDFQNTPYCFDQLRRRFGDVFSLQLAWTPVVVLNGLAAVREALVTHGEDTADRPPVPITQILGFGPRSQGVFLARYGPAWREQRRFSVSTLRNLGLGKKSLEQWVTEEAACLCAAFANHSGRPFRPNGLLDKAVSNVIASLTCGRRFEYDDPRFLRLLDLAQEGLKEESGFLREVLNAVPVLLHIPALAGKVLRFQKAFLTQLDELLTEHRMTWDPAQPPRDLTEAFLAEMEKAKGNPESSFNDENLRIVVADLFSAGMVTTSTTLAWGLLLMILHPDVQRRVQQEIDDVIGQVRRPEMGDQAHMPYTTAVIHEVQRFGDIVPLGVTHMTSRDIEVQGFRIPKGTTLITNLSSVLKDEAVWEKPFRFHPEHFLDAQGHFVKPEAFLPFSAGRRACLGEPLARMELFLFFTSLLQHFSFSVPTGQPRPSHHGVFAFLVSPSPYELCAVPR
Description: as §1, §2

[6] = biological target: T5, CYP3A4 (Homo sapiens, UniProt P08684); test: as above
T5 construct: 0.2–0.5 mg/mL pooled human liver microsomes; from tissue; host or cells: pooled human liver microsomes
T5 sequence (P08684 whole entry): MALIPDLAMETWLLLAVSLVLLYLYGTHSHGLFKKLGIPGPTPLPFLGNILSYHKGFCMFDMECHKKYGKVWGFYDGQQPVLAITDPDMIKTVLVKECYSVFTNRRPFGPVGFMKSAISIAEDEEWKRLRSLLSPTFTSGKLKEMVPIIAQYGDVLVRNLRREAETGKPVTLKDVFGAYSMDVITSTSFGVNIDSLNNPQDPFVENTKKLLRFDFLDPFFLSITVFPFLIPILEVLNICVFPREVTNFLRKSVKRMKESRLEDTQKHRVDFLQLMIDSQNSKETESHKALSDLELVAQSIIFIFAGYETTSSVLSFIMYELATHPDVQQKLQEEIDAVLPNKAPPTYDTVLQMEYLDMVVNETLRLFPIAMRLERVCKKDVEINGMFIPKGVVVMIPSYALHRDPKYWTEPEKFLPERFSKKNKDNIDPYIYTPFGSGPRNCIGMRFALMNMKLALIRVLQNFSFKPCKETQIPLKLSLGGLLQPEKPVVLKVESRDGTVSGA
Description: as §1, §2

- Partitioned into the RBC compartment [1]: approximately 85%
- IC50 [2]: 41.4 µM
- IC50 [3]: > 100 µM
- IC50 [4]: > 100 µM
- IC50 [5]: > 100 µM
- IC50 ([6]; substrate Midazolam): > 100 µM
- IC50 ([6]; substrate Testosterone): 95 µM
SMILES: O=Cc1c(O)cccc1OCc1cccc(CO)n1 [VZHE-039, 2-((6-(Hydroxymethyl)pyridin-2-yl)methoxy)-6-hydroxybenzaldehyde]
